Experimental data published in US12673975B2, “Cyclic peptide, cell scaffold material, cell separating material, and medium” (FUJIFILM Corporation, priority 2019, dated 2026).
Starred links: 1 amine or outer side, 2 acyl side, 3 side chain; linkers in the order of their positions; H or OH if unused. Positions of bridges follow the written chain, without caps; N, C: chain ends. Non-standard residues stand in square brackets, D forms with d. Residues, ends and D or L forms follow the SMILES beside them. hTyr = N[C@@H](CCc1ccc(O)cc1)C(=O)O; hCys = N[C@@H](CCS)C(=O)O; hSer = N[C@@H](CCO)C(=O)O; Dab = NCC[C@H](N)C(=O)O; Dap = NC[C@H](N)C(=O)O; X1 = O=C(C[*:2])[*:1]; X2 = O=C(C[*:1])[*:2]

Experiments:
[1] = Evaluation of molecule stability (alkali treatment, residual rate by LC/MS); assay type: physicochemical; conditions: 500 μM peptide aqueous solution plus equivalent of 1 M sodium hydroxide, 15° C., 3 hours, LC/MS peak area
Description: The molecule stability of the cyclic peptide was evaluated by analyzing the alkali-treated cyclic peptide aqueous solution by liquid chromatography mass spectroscopy (LC/MS).
The alkali treatment was carried out by the following method. A 500 μM cyclic peptide aqueous solution was prepared, an equivalent of 1 M sodium hydroxide aqueous solution was added to this aqueous solution, and the resultant mixture was incubated at 15° C. for 3 hours to obtain an alkali-treated cyclic peptide aqueous solution. The cyclic peptide residual rate was calculated by setting the total area of all peaks of the cyclic peptide before alkali treatment in LC/MS to 100% and determining the proportion of the total area of all peaks in LC/MS of the alkali-treated cyclic peptide aqueous solution, and the molecule stability was evaluated according to the following evaluation standards. It is preferable that the evaluation result satisfies the evaluation standard A, B, or C.
The conditions of the LC/MS used for the evaluation of molecule stability were set as follows. • LC apparatus: Prominence series (pump, column oven, autosampler, detector) (manufactured by Shimadzu Corporation) • MS detector: LC/MS2010EV (manufactured by Shimadzu Corporation) • Column: Cadenza CD-C18, inner diameter 2.0 mm×length 250 mm, particle size: 3 μm (manufactured by Imtakt Corporation) • Eluent A: a solution (pH 3) containing 10 mM ammonium formate as a solute, where the solvent is 100% water. • Eluent B: a solution (pH 3) containing 10 mM ammonium formate as a solute, where the solvent is acetonitrile/water=90/10. • Flow rate: 0.2 mL/min • Injection volume: 4 μL • Gradient: 0% to 30%: Eluent B (0 to 30 minutes), 100%: Eluent B (30 to 40 minutes), 0%: Eluent B (40 to 60 minutes) • Column temperature: 45° C. • Ionization method: electrospray ionization (ESI) positive, ESI negative

human integrin αvβ5 = human integrin αvβ5 (Homo sapiens, UniProt P06756+P18084); experiment: Evaluation of integrin binding property (surface plasmon resonance, Biacore 3000, immobilized cyclic peptide); conditions: SPR, 25° C., HEPES buffer with 5 mM magnesium chloride, integrin 30-1,000 nM; read-out: Performance evaluation: Binding activity (dissociation constant between the cyclic peptide and human integrin αvβ5)
Description: A commercially available CMS (a carboxymethyl dextran introduction type, manufactured by GE Healthcare) sensor chip was set in Biacore 3000, which is a surface plasmon resonance apparatus manufactured by GE Healthcare, the sensor was stabilized at a flow rate of 10 μL/min of a HEPES (4-(2-hydroxyethyl)-1-piperazineethanesulfonic acid) buffer solution (20 mM HEPES-HCl, 150 mM NaCl, pH 7.4) for surface plasmon resonance (SPR), and 70 μL of a mixed aqueous solution of 0.2 M 1-(3-dimethylaminopropyl)-3-ethylcarbodiimide (EDC) and 0.04 M N-hydroxysuccinimide (NHS) was added thereto. Here, the concentration unit M represents mol/L, and the same applies hereinafter. Then, 20 μL of the sample solution of each of the above cyclic peptides diluted to 0.2 g/L with the HEPES buffer solution was supplied to the sensor chip, blocking treatment was subsequently carried out with an ethanolamine solution, and washing was carried out with a sodium hydroxide aqueous solution, whereby immobilization was carried out. However, only for the cyclic peptides 125, 126, and 127, in which the number of lysine residues having an amino group as the immobilizing functional group was zero, the amount of the sample solution to be supplied to the sensor chip was set to 500 μL instead of 20 μL. Further, 70 μL of the mixed aqueous solution of 0.2 M EDC and 0.04 M NHS was added to another flow channel of the same sensor chip without immobilizing the sample, and then blocking treatment and washing treatment were carried out. Hereinafter, the obtained immobilization-treated sensor chip is referred to as an “immobilization-treated sensor chip A”.
After adding human integrin αvβ5 for 10 minutes at 25° C., which was diluted to 30 nM using a HEPES buffer solution to which magnesium chloride was added to 5 mM, in each flow channel of the immobilization-treated sensor chip A prepared in (1) above, the same HEPES buffer solution (containing 5 mM magnesium chloride) was allowed to flow as a running buffer for 30 minutes, and measurement was carried out with Biacore 3000. Then, a regeneration treatment of removing human integrin αvβ5 was carried out by allowing a 0.5 M EDTA aqueous solution to flow through each flow channel for 10 minutes. Further, the above-described measurement process consisting of adding integrin for 10 minutes, allowing a running buffer to flow for 30 minutes, carrying out measurement with Biacore 3000, and carrying out regeneration treatment with 0.5 M EDTA aqueous solution was carried out in the same manner for 100 nM human integrin αvβ5, 300 nM human integrin αvβ5, and 1,000 nM human integrin αvβ5. Dissociation constant between the cyclic peptide and human integrin αvβ5 was calculated from the difference between the value measured by Biacore 3000 in the flow channel immobilized with the cyclic peptide and the value measured by Biacore 3000 in the flow channel unimmobilized with the cyclic peptide, in a case where each concentration of human integrin αvβ5 was allowed to flow, and the integrin binding property was evaluated according to the following evaluation standards. It is preferable that the evaluation result satisfies the evaluation standard A, B, or C.

Chain of human integrin αvβ5 (P06756 31-1048): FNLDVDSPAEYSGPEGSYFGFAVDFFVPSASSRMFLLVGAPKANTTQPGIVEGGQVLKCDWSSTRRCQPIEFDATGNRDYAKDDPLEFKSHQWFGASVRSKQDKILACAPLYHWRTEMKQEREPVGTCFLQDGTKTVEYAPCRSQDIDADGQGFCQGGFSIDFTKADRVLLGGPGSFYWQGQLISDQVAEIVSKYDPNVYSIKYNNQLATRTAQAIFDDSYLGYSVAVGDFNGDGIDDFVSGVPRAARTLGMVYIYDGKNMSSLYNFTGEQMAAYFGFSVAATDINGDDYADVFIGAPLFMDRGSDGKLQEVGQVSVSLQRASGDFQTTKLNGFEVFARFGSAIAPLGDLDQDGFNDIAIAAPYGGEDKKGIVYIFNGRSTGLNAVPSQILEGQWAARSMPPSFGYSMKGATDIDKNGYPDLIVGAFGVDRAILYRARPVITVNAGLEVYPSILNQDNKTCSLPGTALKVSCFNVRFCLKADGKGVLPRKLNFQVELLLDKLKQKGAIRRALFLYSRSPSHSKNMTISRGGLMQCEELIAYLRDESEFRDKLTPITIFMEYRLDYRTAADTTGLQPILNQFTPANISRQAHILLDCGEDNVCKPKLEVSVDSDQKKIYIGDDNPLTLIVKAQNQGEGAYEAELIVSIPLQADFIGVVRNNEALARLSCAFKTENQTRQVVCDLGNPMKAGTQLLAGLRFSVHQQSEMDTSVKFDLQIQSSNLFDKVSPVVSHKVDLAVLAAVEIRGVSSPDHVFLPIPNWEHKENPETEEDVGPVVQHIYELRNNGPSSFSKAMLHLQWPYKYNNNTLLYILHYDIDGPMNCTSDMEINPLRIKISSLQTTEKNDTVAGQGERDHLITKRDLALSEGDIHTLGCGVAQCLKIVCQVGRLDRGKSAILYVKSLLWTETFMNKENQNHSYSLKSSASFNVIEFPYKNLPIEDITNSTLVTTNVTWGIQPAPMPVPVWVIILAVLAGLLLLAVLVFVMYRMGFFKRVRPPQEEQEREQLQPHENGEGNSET
Chain of human integrin αvβ5 (P18084 24-799): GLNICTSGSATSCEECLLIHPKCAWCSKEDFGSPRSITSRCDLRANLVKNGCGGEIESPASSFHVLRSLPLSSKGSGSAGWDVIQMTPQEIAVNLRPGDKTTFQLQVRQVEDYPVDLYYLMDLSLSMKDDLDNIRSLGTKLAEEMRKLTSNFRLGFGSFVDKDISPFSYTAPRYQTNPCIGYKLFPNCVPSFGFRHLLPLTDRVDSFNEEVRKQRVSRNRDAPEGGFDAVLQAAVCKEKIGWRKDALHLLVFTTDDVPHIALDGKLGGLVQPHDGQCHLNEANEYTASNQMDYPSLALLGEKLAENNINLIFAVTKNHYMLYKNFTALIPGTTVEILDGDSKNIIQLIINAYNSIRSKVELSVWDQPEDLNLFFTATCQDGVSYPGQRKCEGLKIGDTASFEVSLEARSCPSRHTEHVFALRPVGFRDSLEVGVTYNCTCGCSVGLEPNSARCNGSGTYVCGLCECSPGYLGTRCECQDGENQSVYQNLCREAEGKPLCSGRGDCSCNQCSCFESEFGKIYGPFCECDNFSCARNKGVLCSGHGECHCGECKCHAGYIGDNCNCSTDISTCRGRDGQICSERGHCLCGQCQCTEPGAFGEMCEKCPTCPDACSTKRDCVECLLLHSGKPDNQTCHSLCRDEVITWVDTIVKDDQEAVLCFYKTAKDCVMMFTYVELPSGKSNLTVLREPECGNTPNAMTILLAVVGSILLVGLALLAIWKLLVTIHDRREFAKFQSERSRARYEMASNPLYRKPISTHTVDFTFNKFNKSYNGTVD

| Kd (human integrin αvβ5) [nM] | SMILES | Performance evaluation: Stability (residual rate of cyclic peptide after alkali treatment) [1] |
| --- | --- | --- |
| < 50 | CC(C)C[C@@H]1NC(=O)[C@@H](NC(=O)[C@H](C)NC(=O)[C@H](CCCCN)NC(=O)[C@H](CCCCN)NC(=O)[C@@H](N)CCCCN)CCSCC(=O)NCC[C@@H](C(=O)N[C@@H](CC(=O)O)C(=O)O)NC(=O)[C@H](CCCNC(=N)N)NC(=O)[C@H](Cc2ccc(O)cc2)NC(=O)[C@H](CC(N)=O)NC(=O)[C@H](CC(=O)O)NC(=O)CNC(=O)[C@H](CCCNC(=N)N)NC(=O)[C@@H]2CCCN2C1=O [Cyclic peptide 31, KKKA-(Hcy)-LPRGDNYR(Dab(acetyl))D] (H-KKKA[hCys]LPRGDNYR[Dab]D-OH; linker 5-14 via X2) | A (The residual rate of the cyclic peptide is 70% or more.) |
| 50 to 100 | CC(C)[C@@H]1NC(=O)[C@@H](NC(=O)[C@H](C)NC(=O)[C@H](CCCCN)NC(=O)[C@H](CCCCN)NC(=O)[C@@H](N)CCCCN)CCSCC(=O)NCC[C@@H](C(=O)N[C@@H](CC(=O)O)C(=O)O)NC(=O)[C@H](CCCNC(=N)N)NC(=O)[C@H](Cc2ccc(O)cc2)NC(=O)[C@H](CC(N)=O)NC(=O)[C@H](CC(=O)O)NC(=O)CNC(=O)[C@H](CCCNC(=N)N)NC(=O)[C@@H]2CCCN2C1=O [Cyclic peptide 29, KKKA-(Hcy)-VPRGDNYR(Dab(acetyl))D] (H-KKKA[hCys]VPRGDNYR[Dab]D-OH; linker 5-14 via X2) | A (The residual rate of the cyclic peptide is 70% or more.) |
| 100 to 200 | C[C@H](NC(=O)[C@H](CCCCN)NC(=O)[C@H](CCCCN)NC(=O)[C@@H](N)CCCCN)C(=O)N[C@H]1CCSCC(=O)NCC[C@@H](C(N)=O)NC(=O)[C@H](CCCNC(=N)N)NC(=O)[C@H](Cc2ccc(O)cc2)NC(=O)[C@H](CC(N)=O)NC(=O)[C@H](CC(=O)O)NC(=O)CNC(=O)[C@H](CCCNC(=N)N)NC(=O)[C@@H]2CCCN2C(=O)[C@H](CCC(=O)O)NC1=O [Cyclic peptide 50, KKKA-(Hcy)-EPRGDNYR(Dab(acetyl))] (H-KKKA[hCys]EPRGDNYR[Dab]-NH2; linker 5-14 via X2) | A (The residual rate of the cyclic peptide is 70% or more.) |
| < 50 | C[C@H](NC(=O)[C@@H]1CCNC(=O)CSCC[C@H](NC(=O)[C@H](CCCCN)NC(=O)[C@H](CCCCN)NC(=O)[C@@H](N)CCCCN)C(=O)N[C@@H](CCC(=O)O)C(=O)N2CCC[C@H]2C(=O)N[C@@H](CCCNC(=N)N)C(=O)NCC(=O)N[C@@H](CC(=O)O)C(=O)N[C@@H](CC(N)=O)C(=O)N[C@@H](Cc2ccccc2)C(=O)N[C@@H](CCCNC(=N)N)C(=O)N1)C(=O)O [Cyclic peptide 23, KKK-(Hcy)-EPRGDNFR(Dab(acetyl))A] (H-KKK[hCys]EPRGDNFR[Dab]A-OH; linker 4-13 via X2) | A (The residual rate of the cyclic peptide is 70% or more.) |
| < 50 | CC[C@H](C)[C@@H]1NC(=O)[C@@H](NC(=O)[C@H](C)N)CCSCC(=O)NCC[C@@H](C(=O)N[C@@H](C)C(=O)N[C@@H](CCCCN)C(=O)N[C@@H](CCCCN)C(=O)N[C@@H](CCCCN)C(=O)O)NC(=O)[C@H](C)NC(=O)[C@H](Cc2ccccc2)NC(=O)[C@H](CO)NC(=O)[C@H](CC(=O)O)NC(=O)CNC(=O)[C@H](CCCNC(=N)N)NC(=O)[C@@H]2CCCN2C1=O [Cyclic peptide 100, A-(Hcy)-IPRGDSFA(Dab(acetyl))AKKK] (H-A[hCys]IPRGDSFA[Dab]AKKK-OH; linker 2-11 via X2) | A (The residual rate of the cyclic peptide is 70% or more.) |
| < 50 | CC[C@H](C)[C@@H]1NC(=O)[C@@H](NC(=O)[C@H](CCCCN)NC(=O)[C@H](CCCCN)NC(=O)[C@@H](N)CCCCN)CCSCC(=O)NCC[C@@H](C(=O)O)NC(=O)[C@H](Cc2ccccc2)NC(=O)[C@H]([C@@H](C)O)NC(=O)[C@H](CC(=O)O)NC(=O)CNC(=O)[C@H](CCCNC(=N)N)NC(=O)[C@@H]2CCCN2C1=O [Cyclic peptide 63, KKK-(Hcy)-IPRGDTF(Dab(acetyl))] (H-KKK[hCys]IPRGDTF[Dab]-OH; linker 4-12 via X2) | A (The residual rate of the cyclic peptide is 70% or more.) |
| 50 to 100 | CC[C@H](C)[C@@H]1NC(=O)[C@@H](NC(=O)[C@H](C)NC(=O)[C@H](CCCCN)NC(=O)[C@H](CCCCN)NC(=O)[C@@H](N)CCCCN)CCSCC(=O)NCC[C@@H](C(=O)N[C@@H](C)C(=O)O)NC(=O)[C@H](CCCNC(=N)N)NC(=O)[C@H](Cc2ccccc2)NC(=O)[C@H](C)NC(=O)[C@H](CC(=O)O)NC(=O)CNC(=O)[C@H](CCCNC(=N)N)NC(=O)[C@@H]2CCCN2C1=O [Cyclic peptide 79, KKKA-(Hcy)-IPRGDAFR(Dab(acetyl))A] (H-KKKA[hCys]IPRGDAFR[Dab]A-OH; linker 5-14 via X2) | A (The residual rate of the cyclic peptide is 70% or more.) |
| 50 to 100 | N=C(N)NCCC[C@@H]1NC(=O)[C@H](Cc2ccc(O)cc2)NC(=O)[C@H](CC(N)=O)NC(=O)[C@H](CC(=O)O)NC(=O)CNC(=O)[C@H](CCCNC(=N)N)NC(=O)[C@@H]2CCCN2C(=O)[C@H](CCC(=O)O)NC(=O)[C@@H](NC(=O)[C@H](CCCCN)NC(=O)[C@H](CCCCN)NC(=O)[C@@H](N)CCCCN)CNC(=O)CSCC[C@@H](C(=O)O)NC1=O [Cyclic peptide 46, KKK(Dap(acetyl))EPRGDNYR-(Hcy)] (H-KKK[Dap]EPRGDNYR[hCys]-OH; linker 4-13 via X1) | B (The residual rate of the cyclic peptide is 50% or more and less than 70%.) |
|  | C[C@H](NC(=O)[C@@H]1CCNC(=O)CSCC[C@H](NC(=O)CNC(=O)[C@H](CCCCN)NC(=O)[C@H](CCCCN)NC(=O)[C@@H](N)CCCCN)C(=O)N[C@@H](CCc2ccc(O)cc2)C(=O)N2CCC[C@H]2C(=O)N[C@@H](CCCNC(=N)N)C(=O)NCC(=O)N[C@@H](CC(=O)O)C(=O)N[C@@H]([C@@H](C)O)C(=O)N[C@@H](Cc2ccccc2)C(=O)N[C@@H](CCCNC(=N)N)C(=O)N1)C(=O)O [Cyclic peptide 68, KKKG-(Hcy)-(HmY)-PRGDTFR(Dab(acetyl))A] (H-KKKG[hCys][hTyr]PRGDTFR[Dab]A-OH; linker 5-14 via X2) | A (The residual rate of the cyclic peptide is 70% or more.) |
|  | CC[C@H](C)[C@@H]1NC(=O)[C@@H](NC(=O)CNC(=O)[C@H](CCCCN)NC(=O)[C@H](CCCCN)NC(=O)[C@@H](N)CCCCN)CCSCC(=O)NCC[C@@H](C(=O)N[C@@H](C)C(=O)O)NC(=O)[C@H](CCCNC(=N)N)NC(=O)[C@H](Cc2ccccc2)NC(=O)[C@H](CCO)NC(=O)[C@H](CC(=O)O)NC(=O)CNC(=O)[C@H](CCCNC(=N)N)NC(=O)[C@@H]2CCCN2C1=O [Cyclic peptide 73, KKKG-(Hcy)-IPRGD-(HmS)-FR(Dab(acetyl))A] (H-KKKG[hCys]IPRGD[hSer]FR[Dab]A-OH; linker 5-14 via X2) | A (The residual rate of the cyclic peptide is 70% or more.) |
